In ChEMBL document CHEMBL2021793, “Synthesis, biological evaluation and structure-activity relationships of glycyrrhetinic acid derivatives as novel anti-hepatitis B virus agents” (Bioorg Med Chem Lett, 2012):
pIC50: −log10 of the molar value.

Columns and labels:
[1] = Cytotoxicity against human HepG2(2.2.15) cells; type: cell-based
Hepatitis B virus [2] = assay: Antiviral activity against Hepatitis B virus infected in human HepG2(2.2.15) cells assessed as reduction in hepatitis B surface antigen release; type: functional, organism-based
[3] = Selectivity index, ratio of CC50 for human HepG2(2.2.15) cells to IC50 for HBV by hepatitis B surface antigen release detection assay; type: functional
Hepatitis B virus [4] = assay: Antiviral activity against Hepatitis B virus infected in human HepG2(2.2.15) cells assessed as reduction in hepatitis B e-antigen release; type: functional, organism-based
Hepatitis B virus [5] = assay: Antiviral activity against Hepatitis B virus infected in human HepG2(2.2.15) cells assessed as reduction in viral DNA replication; type: functional, organism-based
[6] = Selectivity index, ratio of CC50 for human HepG2(2.2.15) cells to IC50 for HBV by viral DNA replication detection assay; type: functional
[7] = Selectivity index, ratio of CC50 for human HepG2(2.2.15) cells to IC50 for HBV by hepatitis B e-antigen release detection assay; type: functional

Row | Compound | CC50 [1] [µM] | pIC50 (Hepatitis B virus [2]) | Ratio CC50/IC50 [3] | pIC50 (Hepatitis B virus [4]) | pIC50 (Hepatitis B virus [5]) | Ratio CC50/IC50 [6] | Ratio CC50/IC50 [7]
1 | CC1(C)[C@@H](O)CC[C@]2(C)[C@H]3C(=O)C=C4[C@@H]5C[C@@](C)(C(=O)OCCCCCCCCO)CC[C@]5(C)CC[C@@]4(C)[C@]3(C)CC[C@@H]12 | 157 | 3.84 | 1.1 | < 2.86 | 4.88 | 11.9 | –
2 | CC1(C)[C@@H](O)CC[C@]2(C)[C@H]3CC=C4[C@@H]5C[C@@](C)(C(=O)OCC(N)=O)CC[C@]5(C)CC[C@@]4(C)[C@]3(C)CC[C@@H]12 | 472 | 3.46 | 1.4 | < 2.96 | 4.19 | 7.3 | –
3 | CC1(C)[C@@H](O)CC[C@]2(C)[C@H]3C(=O)C=C4[C@@H]5C[C@@](C)(C(=O)OCc6ccc(-n7cccn7)cc6)CC[C@]5(C)CC[C@@]4(C)[C@]3(C)CC[C@@H]12 | 1990 | 3.03 | 2.1 | < 2.69 | 4.62 | 83.6 | –
4 | CCC(=O)O[C@H]1CC[C@]2(C)[C@H]3C(=O)C=C4[C@@H]5C[C@@](C)(C(=O)O)CC[C@]5(C)CC[C@@]4(C)[C@]3(C)CC[C@H]2C1(C)C [GLYCYRRHETINIC ACID PROPIONATE] | 99.6 | 2.87 | – | 4.31 | 4.35 | 2.2 | 2
5 | CC1(C)[C@@H](O)CC[C@]2(C)[C@H]3C(=O)C=C4[C@@H]5C[C@@](C)(C(=O)OCc6ccc(S(C)(=O)=O)cc6)CC[C@]5(C)CC[C@@]4(C)[C@]3(C)CC[C@@H]12 | 1030 | 4.26 | 18.8 | < 2.92 | 4.67 | 48.3 | –
6 | C[C@H](Cn1cnc2c(N)ncnc21)OCP(=O)(O)O [TENOFOVIR ANHYDROUS] | > 1760 | – | >1.2 | – | 6.05 | >1973.4 | >1.4
7 | CC1(C)[C@@H](O)CC[C@]2(C)[C@H]3C(=O)C=C4[C@@H]5C[C@@](C)(C(=O)O)CC[C@]5(C)CC[C@@]4(C)[C@]3(C)CC[C@@H]12 [ENOXOLONE] | 55.1 | 4.68 | 2.6 | 3.88 | 4.41 | 1.4 | –
8 | CC1(C)[C@@H](O)CC[C@]2(C)[C@H]3C(=O)C=C4[C@@H]5C[C@@](C)(C(=O)OCC(N)=O)CC[C@]5(C)CC[C@@]4(C)[C@]3(C)CC[C@@H]12 | 55.3 | 4.40 | 1.4 | < 2.95 | 4.54 | 1.9 | –
9 | Cc1nc(COC(=O)[C@@]2(C)CC[C@]3(C)CC[C@]4(C)C(=CC(=O)[C@@H]5[C@@]6(C)CC[C@H](O)C(C)(C)[C@@H]6CC[C@]54C)[C@@H]3C2)cs1 | 37.2 | 4.44 | 1 | < 2.83 | 5.04 | 4.1 | –
10 | CC1(C)C(=O)CC[C@]2(C)[C@H]3C(=O)C=C4[C@@H]5C[C@@](C)(C(=O)O)CC[C@]5(C)CC[C@@]4(C)[C@]3(C)CC[C@@H]12 | 467 | 3.36 | 1.1 | < 3.33 | 3.72 | 2.5 | –
11 | COc1cc(/C=C/C(=O)O[C@H]2CC[C@]3(C)[C@H]4CC=C5[C@@H]6C[C@@](C)(C(=O)OCC(N)=O)CC[C@]6(C)CC[C@@]5(C)[C@]4(C)CC[C@H]3C2(C)C)cc(OC)c1OC | > 481 | 3.64 | >2.1 | 3.60 | < 3.92 | – | >1.9
12 | CCCC(=O)O[C@H]1CC[C@]2(C)[C@H]3C(=O)C=C4[C@@H]5C[C@@](C)(C(=O)O)CC[C@]5(C)CC[C@@]4(C)[C@]3(C)CC[C@H]2C1(C)C | 119 | 3.43 | – | 4.43 | 4.32 | 2.5 | 3.2
13 | CC1(C)[C@@H](O)CC[C@]2(C)[C@H]3C(=O)C=C4[C@@H]5C[C@@](C)(C(=O)OCCOc6ccccc6)CC[C@]5(C)CC[C@@]4(C)[C@]3(C)CC[C@@H]12 | 101 | 4.24 | 1.8 | < 2.93 | 4.85 | 7.1 | –
14 | CC1(C)[C@@H](O)CC[C@]2(C)[C@H]3C(=O)C=C4[C@@H]5C[C@@](C)(C(=O)OCc6ccc([N+](=O)[O-])cc6)CC[C@]5(C)CC[C@@]4(C)[C@]3(C)CC[C@@H]12 | > 1330 | 3.22 | >2.2 | < 2.88 | 5.05 | >149.2 | –
15 | CC1(C)[C@@H](O)CC[C@]2(C)[C@H]3CC=C4[C@@H]5C[C@@](C)(C(=O)O)CC[C@]5(C)CC[C@@]4(C)[C@]3(C)CC[C@@H]12 | 162 | 4.31 | 3.3 | < 2.86 | 4.33 | 3.4 | –
16 | CCOC(=O)CCCOC(=O)[C@@]1(C)CC[C@]2(C)CC[C@]3(C)C(=CC(=O)[C@@H]4[C@@]5(C)CC[C@H](O)C(C)(C)[C@@H]5CC[C@]43C)[C@@H]2C1 | 53.3 | 4.42 | 1.4 | 4.25 | 4.51 | 1.7 | –
17 | CC1(C)[C@@H](O)CC[C@]2(C)[C@H]3C(=O)C=C4[C@@H]5C[C@@](C)(C(=O)OCc6cccc(F)c6)CC[C@]5(C)CC[C@@]4(C)[C@]3(C)CC[C@@H]12 | > 1310 | 3.23 | >2.2 | < 2.88 | 4.71 | >67.2 | –
18 | CC1(C)[C@@H](O)CC[C@]2(C)[C@H]3C(=O)C=C4[C@@H]5C[C@@](C)(C(=O)OCc6ccc(OC(F)(F)F)cc6)CC[C@]5(C)CC[C@@]4(C)[C@]3(C)CC[C@@H]12 | > 1130 | < 2.95 | – | < 2.95 | 3.80 | >7.1 | –
19 | COc1cc(/C=C/C(=O)O[C@H]2CC[C@]3(C)[C@H]4C(=O)C=C5[C@@H]6C[C@@](C)(C(=O)O)CC[C@]6(C)CC[C@@]5(C)[C@]4(C)CC[C@H]3C2(C)C)cc(OC)c1OC | > 1160 | < 2.93 | – | 3.63 | 3.92 | >9.7 | > 5
20 | CC1(C)[C@@H](O)CC[C@]2(C)[C@H]3C(=O)C=C4[C@@H]5C[C@@](C)(C(=O)OCC6CC6)CC[C@]5(C)CC[C@@]4(C)[C@]3(C)CC[C@@H]12 | 696 | 3.17 | – | < 2.96 | 4.17 | 10.4 | –
21 | CC1(C)[C@@H](O)CC[C@]2(C)[C@H]3C[C@H]4O[C@]45[C@@H]4C[C@@](C)(C(=O)O)CC[C@]4(C)CC[C@@]5(C)[C@]3(C)CC[C@@H]12 | 35.7 | 4.36 | – | < 2.74 | 4.74 | 1.9 | –
22 | CC1(C)[C@@H](O)CC[C@]2(C)[C@H]3C(=O)C=C4[C@@H]5C[C@@](C)(C(=O)OCc6ccc(Br)cc6F)CC[C@]5(C)CC[C@@]4(C)[C@]3(C)CC[C@@H]12 | > 1430 | < 3.09 | – | < 3.09 | 4.74 | >79 | –
